The source of these data is patent US10647723B2, “Thiochromene type compound and use thereof” (SOGANG UNIVERSITY RESEARCH FOUNDATION, priority 2015, dated 2020).

Data set [1] is described as follows: Solubility comparison: cloud point on adding water to a DMSO solution. The format is physicochemical. The following applies: upon dissolution in DMSO.
Data set [2] in a line: UV-Vis absorption spectrum. The format is physicochemical. The following applies: compared to compounds 1 and 2; FIG. 5.

Consider `Cn1c2c(c3ccccc31)C(SCCC(=O)ON1C(=O)CCC1=O)Sc1ccccc1-2` (stereo not drawn) [3a, 2,5-Dioxopyrrolidin-1-yl 3-((11-methyl-6,11-dihydrothiochromeno[4,3-b]indol-6-yl)thio)propanoate], for which the melting point was 90 to 96 °C (dec.). Besides, the “water added at which a cloud point formed” value in data set [1] is given as 30%. In data set [2], the “absorbance at 355 nm” value is reported as “high absorbance”.

In the case of `CCCn1c2c(c3ccccc31)C(SCCC(=O)ON1C(=O)CCC1=O)Sc1ccccc1-2` (stereo not drawn) [3c, 2,5-Dioxopyrrolidin-1-yl 3-((11-propyl-6,11-dihydrothiochromeno[4,3-b]indol-6-yl)thio)propanoate], the melting point is 77 to 82 °C (dec.).

In the case of `CCCCn1c2c(c3ccccc31)C(SCCC(=O)ON1C(=O)CCC1=O)Sc1ccccc1-2` (stereo not drawn) [3d, 2,5-Dioxopyrrolidin-1-yl 3-((11-butyl-6, 11-dihydrothiochromeno[4,3-b]indol-6-yl)thio)propanoate], the melting point is 76 to 81 °C (dec.).

Consider `CCn1c2c(c3ccccc31)C(SCCC(=O)ON1C(=O)CCC1=O)Sc1ccccc1-2` (stereo not drawn) [3b, 2,5-Dioxopyrrolidin-1-yl 3-((11-ethyl-6,11-dihydrothiochromeno[4,3-b]indol-6-yl)thio)propanoate], for which the melting point is 82 to 87 °C (dec.).
